IC50 data for 13 compounds are collected here from patent publication US20260022142A1, “MACROCYCLIC IMMUNOMODULATORS” (Bristol-Myers Squibb Company, priority 2022, published 2026).

Bridge positions count the residues as written; N and C are the ends. Square brackets hold non-standard residues; d marks the D form. Peptide text beside a SMILES is read from it. * marks the point of attachment. Phe(4-COOH) = N[C@@H](Cc1ccc(C(=O)O)cc1)C(=O)O; Bip = N[C@@H](Cc1ccc(-c2ccccc2)cc1)C(=O)O; Phe(3-Me) = Cc1cccc(C[C@H](N)C(=O)O)c1; 4Pal = N[C@@H](Cc1ccncc1)C(=O)O; Aad = N[C@@H](CCCC(=O)O)C(=O)O; Cha = N[C@@H](CC1CCCCC1)C(=O)O; Pen = CC(C)(S)[C@H](N)C(=O)O; Carboxymethyl = O=C(O)C*; Orn = NCCC[C@H](N)C(=O)O; Aun = NCCCCCCCCCCC(=O)O; Dab = NCC[C@H](N)C(=O)O; Dap = NC[C@H](N)C(=O)O

T1 sequence (Q15116 25-288): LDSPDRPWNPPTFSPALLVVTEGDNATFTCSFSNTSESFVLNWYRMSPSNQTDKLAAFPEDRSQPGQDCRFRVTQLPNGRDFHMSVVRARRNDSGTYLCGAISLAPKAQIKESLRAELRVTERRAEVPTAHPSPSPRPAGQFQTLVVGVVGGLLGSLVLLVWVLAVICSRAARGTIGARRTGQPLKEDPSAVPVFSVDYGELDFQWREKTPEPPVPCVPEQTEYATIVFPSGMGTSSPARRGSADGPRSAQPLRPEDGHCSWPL

The test concerns the target T1, PD-1/PD-L1 interaction (PE-labeled human PD-L1-Ig binding to Jurkat cell line over-expressing human PD-1) (Homo sapiens, UniProt Q15116).
T1 construct: expressed in transfected cells; host or cells: Jurkat
Put plainly: Jurkat-PD-1 Cell Binding High-Content Screening Assay (CBA). The format is cell-based. The note with it: Jurkat cell line over-expressing human PD-1; PE-labeled PD-L1-Ig 20 nM final; read-out: Jurkat hPD1-PDL1 IC50. An outline of the steps: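 Binding of fluorescent PD-L1-Ig (phycoerythrin on Ig tag, 20 nM final, 1 h) measured by high-content imaging of fixed, Hoechst-counterstained Jurkat-hPD-1 cells. Compound added 2 h at 37° C beforehand, in DMEM with 10% fetal calf serum.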
Turning to `CC(C)C[C@H]1NC(=O)[C@H](CCCN)NC(=O)[C@H](Cc2ccc(O)cc2)NC(=O)[C@H](Cc2ccc(-c3ccccc3)cc2)NC(=O)[C@H](C(C)C)NC(=O)[C@H](Cc2c[nH]c3ccccc23)NC(=O)[C@H](CC(=O)O)NC(=O)[C@H](Cc2ccc(OCC(=O)O)cc2)NC(=O)[C@H](Cc2ccncc2)NC(=O)CSC[C@@H](C(=O)N[C@@H](CCN)C(=O)NCCCCCCCCCCC(=O)O)NC(=O)[C@H]([C@@H](C)O)NC(=O)[C@H](C(C)C)NC(=O)[C@H](CC2CCCCC2)NC(=O)[C@H](CCN)NC1=O` [Compound 2741] ({CH2CO}-[4Pal]Y(Carboxymethyl)DWV[Bip]Y[Orn][dL][Dab][Cha]VTC[Dab][Aun]-OH; thioether N-14), the IC50 came to 54.3 nM.
In the case of `CC(C)C[C@@H]1NC(=O)[C@H](CCN)NC(=O)[C@@H](CC(C)C)NC(=O)[C@H](CCCN)NC(=O)[C@H](Cc2ccc(O)cc2)NC(=O)[C@H](Cc2ccc(-c3ccccc3)cc2)NC(=O)[C@H](C(C)C)NC(=O)[C@H](Cc2c[nH]c3ccccc23)NC(=O)[C@H](CC(=O)O)NC(=O)[C@H](Cc2ccc(OCC(=O)O)cc2)NC(=O)[C@H](Cc2ccncc2)NC(=O)CSC[C@@H](C(=O)N[C@@H](CCN)C(=O)NCCCCCCCCCCC(=O)O)NC(=O)[C@H]([C@@H](C)O)NC(=O)[C@H](C(C)C)NC1=O` [Compound 2742] ({CH2CO}-[4Pal]Y(Carboxymethyl)DWV[Bip]Y[Orn][dL][Dab]LVTC[Dab][Aun]-OH; thioether N-14), the IC50 is 133 nM.
As for `CC(C)C[C@H]1NC(=O)[C@H](CCCN)NC(=O)[C@H](Cc2ccc(O)cc2)NC(=O)[C@H](Cc2ccc(-c3ccccc3)cc2)NC(=O)[C@H](C(C)C)NC(=O)[C@H](Cc2c[nH]c3ccccc23)NC(=O)[C@H](CC(=O)O)NC(=O)[C@H](Cc2ccc(O)cc2)NC(=O)[C@H](Cc2ccncc2)NC(=O)CSC[C@@H](C(=O)N[C@@H](CCN)C(=O)NCCCCCCCCCCC(=O)O)NC(=O)[C@H]([C@@H](C)O)NC(=O)[C@H](C(C)C)NC(=O)[C@H](CC2CCCCC2)NC(=O)[C@H](CCN)NC1=O` [Compound 2743] ({CH2CO}-[4Pal]YDWV[Bip]Y[Orn][dL][Dab][Cha]VTC[Dab][Aun]-OH; thioether N-14), the IC50 came out at 97.6 nM.
As for `Cc1cccc(C[C@@H]2NC(=O)[C@H](CC(=O)O)NC(=O)[C@H](Cc3ccc(OCC(=O)O)cc3)NC(=O)[C@H](Cc3ccncc3)NC(=O)CSC[C@@H](C(=O)N[C@@H](CCN)C(=O)NCCCCCCCCCCC(=O)O)NC(=O)[C@H]([C@@H](C)O)NC(=O)[C@H](C(C)C)NC(=O)[C@H](CC3CCCCC3)NC(=O)[C@H](CCN)NC(=O)[C@@H](CC(C)C)NC(=O)[C@H](CCCN)NC(=O)[C@H](Cc3ccc(O)cc3)NC(=O)[C@H](Cc3ccc(-c4ccccc4)cc3)NC(=O)[C@H](C(C)C)NC2=O)c1` [Compound 2744] ({CH2CO}-[4Pal]Y(Carboxymethyl)D[Phe(3-Me)]V[Bip]Y[Orn][dL][Dab][Cha]VTC[Dab][Aun]-OH; thioether N-14), the figure is 72.5 nM.
As for `Cc1cccc(C[C@@H]2NC(=O)[C@H](CC(=O)O)NC(=O)[C@H](Cc3ccc(O)cc3)NC(=O)[C@H](Cc3ccncc3)NC(=O)CSC[C@@H](C(=O)N[C@@H](CCN)C(=O)NCCCCCCCCCCC(=O)O)NC(=O)[C@H]([C@@H](C)O)NC(=O)[C@H](C(C)C)NC(=O)[C@H](CC3CCCCC3)NC(=O)[C@H](CCN)NC(=O)[C@@H](CC(C)C)NC(=O)[C@H](CCCN)NC(=O)[C@H](Cc3ccc(O)cc3)NC(=O)[C@H](Cc3ccc(-c4ccccc4)cc3)NC(=O)[C@H](C(C)C)NC2=O)c1` [Compound 2745] ({CH2CO}-[4Pal]YD[Phe(3-Me)]V[Bip]Y[Orn][dL][Dab][Cha]VTC[Dab][Aun]-OH; thioether N-14), the figure is 262 nM; as for `CC(C)C[C@H]1NC(=O)[C@H](CCCN)NC(=O)[C@H](Cc2ccc(O)cc2)NC(=O)[C@H](Cc2ccc(-c3ccccc3)cc2)NC(=O)[C@H](C(C)C)NC(=O)[C@H](Cc2c[nH]c3ccccc23)NC(=O)[C@H](CC(=O)O)NC(=O)[C@H](Cc2ccncc2)NC(=O)[C@H](Cc2ccc(OCC(=O)O)cc2)NC(=O)CSC[C@@H](C(=O)N[C@@H](CCN)C(=O)NCCCCCCCCCCC(=O)O)NC(=O)[C@H]([C@@H](C)O)NC(=O)[C@H](C(C)C)NC(=O)[C@H](CC2CCCCC2)NC(=O)[C@H](CCN)NC1=O` [Compound 2746] ({CH2CO}-Y(Carboxymethyl)[4Pal]DWV[Bip]Y[Orn][dL][Dab][Cha]VTC[Dab][Aun]-OH; thioether N-14), 48.6 nM.
In the case of `Cc1cccc(C[C@@H]2NC(=O)[C@H](CC(=O)O)NC(=O)[C@H](Cc3ccc(OCC(=O)O)cc3)NC(=O)[C@H](Cc3ccc(OCC(=O)O)cc3)NC(=O)CSC[C@@H](C(=O)N[C@@H](CCN)C(=O)NCCCCCCCCCCC(=O)O)NC(=O)[C@H]([C@@H](C)O)NC(=O)[C@H](C(C)C)NC(=O)[C@H](CC(C)C)NC(=O)[C@H](CCN)NC(=O)[C@@H](CC(C)C)NC(=O)[C@H](CCCN)NC(=O)[C@H](Cc3ccc(O)cc3)NC(=O)[C@H](Cc3ccc(-c4ccccc4)cc3)NC(=O)[C@H](CC(C)C)NC2=O)c1` [Compound 2747] ({CH2CO}-Y(Carboxymethyl)Y(Carboxymethyl)D[Phe(3-Me)]L[Bip]Y[Orn][dL][Dab]LVTC[Dab][Aun]-OH; thioether N-14), the IC50 was determined as 45 nM.
For `Cc1cccc(C[C@@H]2NC(=O)[C@H](CC(=O)O)NC(=O)[C@H](Cc3ccc(C(=O)O)cc3)NC(=O)[C@H](Cc3ccc(OCC(=O)O)cc3)NC(=O)CSC[C@@H](C(=O)N[C@@H](CCN)C(=O)NCCCCCCCCCCC(=O)O)NC(=O)[C@H]([C@@H](C)O)NC(=O)[C@H](C(C)C)NC(=O)[C@H](CC3CCCCC3)NC(=O)[C@H](CCN)NC(=O)[C@@H](CC(C)C)NC(=O)[C@H](CCCN)NC(=O)[C@H](Cc3ccc(O)cc3)NC(=O)[C@H](Cc3ccc(-c4ccccc4)cc3)NC(=O)[C@H](C(C)C)NC2=O)c1` [Compound 2748] ({CH2CO}-Y(Carboxymethyl)[Phe(4-COOH)]D[Phe(3-Me)]V[Bip]Y[Orn][dL][Dab][Cha]VTC[Dab][Aun]-OH; thioether N-14) the value was 147 nM; for `Cc1cccc(C[C@@H]2NC(=O)[C@H](CC(=O)O)NC(=O)[C@H](Cc3ccc(OCC(=O)O)cc3)NC(=O)[C@H](CN)NC(=O)CSC[C@@H](C(=O)N[C@@H](CCN)C(=O)NCCCCCCCCCCC(=O)O)NC(=O)[C@H](CCCC(N)=O)NC(=O)[C@H](C(C)C)NC(=O)[C@H](CC3CCCCC3)NC(=O)[C@H](CCN)NC(=O)[C@@H](CC(C)C)NC(=O)[C@H](CCCN)NC(=O)[C@H](Cc3ccc(O)cc3)NC(=O)[C@H](Cc3ccc(-c4ccccc4)cc3)NC(=O)[C@H](Cc3ccc(O)cc3)NC2=O)c1` [Compound 2750] ({CH2CO}-[Dap]Y(Carboxymethyl)D[Phe(3-Me)]Y[Bip]Y[Orn][dL][Dab][Cha]V[Aad](NH2)C[Dab][Aun]-OH; thioether N-14), 9.1 nM; for `Cc1cccc(C[C@@H]2NC(=O)[C@H](CC(=O)O)NC(=O)[C@H](Cc3ccc(OCC(=O)O)cc3)NC(=O)[C@H](CN)NC(=O)CSC[C@@H](C(=O)N[C@@H](CCN)C(=O)NCCCCCCCCCCC(=O)O)NC(=O)[C@H](CCCC(N)=O)NC(=O)[C@H](C(C)C)NC(=O)[C@H](CC3CCCCC3)NC(=O)[C@H](CCN)NC(=O)[C@@H](CC(C)C)NC(=O)[C@H](CCCN)NC(=O)[C@H](Cc3ccc(O)cc3)NC(=O)[C@H](Cc3ccc(-c4ccccc4)cc3)NC(=O)[C@H](C(C)C)NC2=O)c1` [Compound 2751] ({CH2CO}-[Dap]Y(Carboxymethyl)D[Phe(3-Me)]V[Bip]Y[Orn][dL][Dab][Cha]V[Aad](NH2)C[Dab][Aun]-OH; thioether N-14), 12.5 nM.
For `Cc1cccc(C[C@@H]2NC(=O)[C@H](CC(=O)O)NC(=O)[C@H](Cc3ccc(OCC(=O)O)cc3)NC(=O)[C@H](CN)NC(=O)CSC(C)(C)[C@@H](C(=O)N[C@@H](CCN)C(=O)NCCCCCCCCCCC(=O)O)NC(=O)[C@H]([C@@H](C)O)NC(=O)[C@H](C(C)C)NC(=O)[C@H](CC3CCCCC3)NC(=O)[C@H](CCN)NC(=O)[C@@H](CC(C)C)NC(=O)[C@H](CCCN)NC(=O)[C@H](Cc3ccc(O)cc3)NC(=O)[C@H](Cc3ccc(-c4ccccc4)cc3)NC(=O)[C@H](C(C)C)NC2=O)c1` [Compound 2753] ({CH2CO}-[Dap]Y(Carboxymethyl)D[Phe(3-Me)]V[Bip]Y[Orn][dL][Dab][Cha]VT[Pen][Dab][Aun]-OH; thioether N-14) the value was 113 nM.
For `Cc1cccc(C[C@@H]2NC(=O)[C@H](CC(=O)O)NC(=O)[C@H](Cc3ccc(OCC(=O)O)cc3)NC(=O)[C@H](CN)NC(=O)CSC[C@@H](C(=O)N[C@@H](CCN)C(=O)NCCCCCCCCCCC(=O)O)NC(=O)[C@@H](CC(N)=O)NC(=O)[C@H](C(C)C)NC(=O)[C@H](CC3CCCCC3)NC(=O)[C@H](CCN)NC(=O)[C@@H](CC(C)C)NC(=O)[C@H](CCCN)NC(=O)[C@H](Cc3ccc(O)cc3)NC(=O)[C@H](Cc3ccc(-c4ccccc4)cc3)NC(=O)[C@H](C(C)C)NC2=O)c1` [Compound 2754] ({CH2CO}-[Dap]Y(Carboxymethyl)D[Phe(3-Me)]V[Bip]Y[Orn][dL][Dab][Cha]V[dN]C[Dab][Aun]-OH; thioether N-14) the value was 53.9 nM; for `Cc1cccc(C[C@@H]2NC(=O)[C@H](CC(=O)O)NC(=O)[C@H](Cc3ccc(OCC(=O)O)cc3)NC(=O)[C@H](CN)NC(=O)CSC[C@@H](C(=O)N[C@@H](CCN)C(=O)NCCCCCCCCCCC(=O)O)NC(=O)[C@@H](CC(N)=O)NC(=O)[C@H](C(C)C)NC(=O)[C@H](CC(C)C)NC(=O)[C@H](CCN)NC(=O)[C@@H](CC(C)C)NC(=O)[C@H](CCCN)NC(=O)[C@H](Cc3ccc(O)cc3)NC(=O)[C@H](Cc3ccc(-c4ccccc4)cc3)NC(=O)[C@H](C(C)C)NC2=O)c1` [Compound 2755] ({CH2CO}-[Dap]Y(Carboxymethyl)D[Phe(3-Me)]V[Bip]Y[Orn][dL][Dab]LV[dN]C[Dab][Aun]-OH; thioether N-14), 30.5 nM.

A word on the IC50: it is the point on the concentration scale where inhibition reaches its midpoint.
